From patent US20260327243A1, “SPIRO-HETEROCYCLIC INHIBITORS OF KRAS G12C MUTANT PROTEINS AND USES THEREOF” (AMGEN INC., priority 2023, published 2026)

molecular target: KRAS^G12C (Homo sapiens, UniProt P01116, C118A/G12C); test: Coupled Nucleotide Exchange Assay; type: biochemical; conditions: GDP-bound KRAS (aa 1-169) G12C/C118A; 2 h compound pre-incubation; SOS-mediated exchange, 30 min; cRAF binding (AlphaLISA)
Description: The KRAS^G12C coupled nucleotide exchange assay allows for the screening and profiling of KRAS^G12C antagonists/inhibitors by monitoring the binding of an effector protein (e.g., a Ras binding domain of Raf1, RBD-cRaf) to KRAS^G12C. Purified GDP-bound KRAS protein (aa 1-169), containing both G12C and C118A amino acid substitutions and an N-terminal His-tag, was pre-incubated in assay buffer (25 mM HEPES pH 7.4, 10 mM MgCl2, 0.01% Triton X-100, either with or without 0.1% BSA) with serially diluted compound for 2 h. For all subsequent steps, BSA was omitted and DTT was added to the reaction buffer at a final concentration of 1 mM. Following compound pre-incubation, purified SOS protein (aa 564-1049) and GTP (Roche 10106399001) were added to the assay wells and incubated for an additional 30 min. To determine the extent of inhibition of SOS-mediated nucleotide exchange, purified GST-tagged cRAF (aa 1-149), nickel chelate AlphaLISA acceptor beads (PerkinElmer AL108R), and AlphaScreen glutathione donor beads (PerkinElmer 6765302) were added to the assay wells and incubated for 5-30 min. The assay plates were then read on a plate reader measuring luminescence signal. Signal intensity of compound-containing wells were normalized to DMSO control, and data were analyzed using a 4-parameter logistic model to calculate IC50 values.

Sequence of KRAS^G12C (P01116 1-169 isoform P01116-2 G12C/C118A): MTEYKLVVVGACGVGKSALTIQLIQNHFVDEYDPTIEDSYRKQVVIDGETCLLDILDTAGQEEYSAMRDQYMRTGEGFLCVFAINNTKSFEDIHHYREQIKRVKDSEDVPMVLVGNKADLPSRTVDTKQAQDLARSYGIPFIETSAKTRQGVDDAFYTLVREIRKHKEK

| Compound | IC50 [µM] |
| --- | --- |
| C=CC(=O)N1CCN([C@@H]2CN(c3cc(N4CCC5(CC4)OCC=C5C)nc(C(F)F)n3)[C@@H]2C)CC1 [Compound 3-050, 1-(4-((2R,3R)-1-(2-(Difluoromethyl)-6-(4-methyl1-oxa-8-azaspiro[4.5]dec3-en-8-yl)pyrimidin-4-yl)-2-methylazetidin-3-yl)piperazin-1-yl)prop2-en-1-one] | 0.825 |
| C=CC(=O)N1CCN([C@@H]2CN(c3cc(N4CCC5(CCC(=O)N5C)CC4)nc(C(F)(F)F)n3)[C@@H]2C)CC1 [Compound 3-020, 8-(6-((2R,3R)-3-(4-Acryloylpiperazin-1-yl)-2-methylazetidin-1-yl)-2-(trifluoromethyl)pyrimidin-4-yl)-1-methyl-1,8-diazaspiro[4.5]decan-2-one] | 1.6 |
| C=CC(=O)N1CCN(C2CN(c3cc(N4CCC5(CCCO5)[C@H](CO)C4)nc(C(F)(F)F)c3C#N)C2)CC1 (single isomer, unassigned) [Compound 3-062-1] | 4.66 |
| C=CC(=O)N1CCN([C@@H]2CN(c3cc(N4CCC5(C=CCOC5)CC4)nc(C(F)(F)F)n3)[C@@H]2C)CC1 [Compound 3-021, 1-(4-((2R,3R)-1-(6-(2-Oxa-9-azaspiro[5.5]undec-4-en-9-yl)-2-(trifluoromethyl)pyrimidin-4-yl)-2-methylazetidin-3-yl)piperazin-1-yl) prop-2-en-1-one] | 3.86 |
| C=CC(=O)N1CCN([C@@H]2CN(c3cc(N4CCC5(CC4)OCc4nccc(C)c45)nc(C(F)F)n3)[C@@H]2C)CC1 [Compound 3-080] | 0.353 |
| C=CC(=O)N1CCN([C@@H]2CN(c3cc(N4CCC5(C=CCC5)CC4)nc(C(F)(F)F)n3)[C@@H]2C)CC1 [Compound 3-073, 1-(4-((2R,3R)-1-(6-(8-Azaspiro[4.5]dec-1-en-8-yl)-2-(trifluoromethyl)pyrimidin-4-yl)-2-methylazetidin-3-yl)piperazin-1-yl) prop-2-en-1-one] | 4.3 |
| C=CC(=O)N1CCN([C@@H]2CN(c3cc(N4CCC5(C[C@@H]4C)OCC=C5C)nc(C(F)(F)F)n3)[C@@H]2C)CC1 (stereo partly drawn) [Compound 3-006, 1-(4-((2R,3R)-1-(6-(4,7-dimethyl-1-oxa-8-azaspiro[4.5]dec-3-en-8-yl)-2-(trifluoromethyl)pyrimidin-4-yl)-2-methylazetidin-3-yl)piper-azin-1-yl)prop-2-en-1-one] | 2.24 |
| C=CC(=O)N1CCN([C@@H]2CN(c3cc(N4CC[C@@]5(CC4C)OCCc4ncsc45)nc(C(F)(F)F)n3)[C@@H]2C)CC1 (single isomer, unassigned) [Compound 3-091-2] | 0.883 |
| C=CC(=O)N1CCN([C@@H]2CN(c3cc(N4CCC5(CC4)C(F)(F)C54CC4)nc(C(F)(F)F)n3)[C@@H]2C)CC1 [Compound 3-022, 1-(4-((2R,3R)-1-(6-(10.10-difluoro-7-azadispiro[2.0.5^4.1^3]decan-7-yl)-2-(trifluoromethyl)pyrimidin-4-yl)-2-methylazetidin-3-yl)piperazin-1-yl)prop-2-en-1-one] | 5.61 |
| C=CC(=O)N1CCN(C2CN(c3cc(N4C5CCC4CC4(CCCO4)C5)nc(C(F)(F)F)n3)C2)CC1 (stereo not drawn) [Compound 3-025, 1-(4-(1-(6-(dihydro-3′H-8-azaspiro[bicyclo[3.2.1]octane-3,2′-furan]-8-yl)-2-(trifluoromethyl)pyrimidin-4-yl)azetidin-3-yl)piperazin-1-yl)prop-2-en-1-one] | 3.72 |
| C=CC(=O)N1CCN([C@@H]2CN(c3cc(N4CCC5(C=CCO5)CC4)nc(C(F)F)n3)[C@@H]2C)CC1 [Compound 3-012, 1-(4-((2R,3R)-1-(2-(difluorometh-yl)-6-(1-oxa-8-azaspiro[4.5]dec-3-en-8-yl)pyrimidin-4-yl)-2-methyl-azetidin-3-yl)piperazin-1-yl)prop-2-en-1-one] | 2.54 |

Next, values leading:

| IC50 [µM] | Compound |
| --- | --- |
| 1.28 | C=CC(=O)N1CCN(C2CN(c3cc(N4CCC5(C=C[C@@H](C)O5)CC4)nc(C(F)(F)F)c3C#N)C2)CC1 [Compound 3-068-1, (R)-4-(3-(4-acryloylpiperazin-1-yl)azetidin-1-yl)-6-(2-methyl-1-oxa-8-azaspiro[4.5]dec-3-en-8-yl)-2-(trifluoromethyl)nicotinonitrile] |
| 8.68 | C=CC(=O)N1CCN(C2CN(c3cc(N4CCC5(CC4)CC(C)(O)CO5)nc(C(F)(F)F)c3C#N)C2)CC1 (stereo not drawn) [Compound 3-029, 4-(3-(4-acryloylpiperazin-1-yl)azetidin-1-yl)-6-(3-hydroxy-3-methyl-1-oxa-8-azaspiro[4.5]decan-8-yl)-2-(trifluoromethyl)nicotinonitrile] |
| 3.58 | C=CC(=O)N1CCN(C2CN(c3cc(N4CCC5(CCCCO5)CC4)nc(C(F)(F)F)c3C#N)C2)CC1 [Compound 3-035, 4-(3-(4-acryloylpiperazin-1-yl)azetidin-1-yl)-6-(1-oxa-9-azaspiro[5.5]undecan-9-yl)-2-(trifluoromethyl)nicotinonitrile] |
| 9.25 | C=CC(=O)N1CCN(C2CN(c3cc(N4CCC5(CC4)OCCC5=O)nc(C(F)(F)F)c3C#N)C2)CC1 [Compound 3-031, 4-(3-(4-acryloylpiperazin-1-yl)azetidin-1-yl)-6-(4-oxo-1-oxa-8-azaspiro[4.5]decan-8-yl)-2-(trifluoromethyl)nicotinonitrile] |
| 2.84 | C=CC(=O)N1CCN(C2CN(c3cc(N4CCC5(CC4)OC(C)(C)c4ccccc45)nc(C(F)(F)F)c3C#N)C2)CC1 [Compound 3-040, 4-(3-(4-acryloylpiperazin-1-yl)azetidin-1-yl)-6-(3,3-dimethyl-3H-spiro[isobenzofuran-1,4′-piperidin]-1′-yl)-2-(trifluoromethyl)nicotinonitrile] |
| 3.32 | C=CC(=O)N1CCN(C2CN(c3cc(N4CCC5(CC4)CC(F)(F)CO5)nc(C(F)(F)F)c3C#N)C2)CC1 [Compound 3-044, 4-(3-(4-acryloylpiperazin-1-yl)azetidin-1-yl)-6-(3,3-difluoro-1-oxa-8-azaspiro[4.5]decan-8-yl)-2-(trifluoromethyl)nicotinonitrile] |
| 6.1 | C=CC(=O)N1CCN(C2CN(c3cc(N4CCC5(CC4)COCCO5)nc(C(F)(F)F)c3C#N)C2)CC1 [Compound 3-024, 4-(3-(4-acryloylpiperazin-1-yl)azetidin-1-yl)-6-(1,4-dioxa-9-azaspiro[5.5]undecan-9-yl)-2-(trifluoromethyl)nicotinonitrile] |
| 2.75 | C=CC(=O)N1CCN(C2CN(c3cc(N4CCC5(CC4)OC(=O)NC5(C)C)nc(C(F)(F)F)c3C#N)C2)CC1 [Compound 3-032, 4-(3-(4-acryloylpiperazin-1-yl)azetidin-1-yl)-6-(4,4-dimethyl-2-oxo-1-oxa-3,8-diazaspiro[4.5]decan-8-yl)-2-(trifluoromethyl)nicotinonitrile] |
| 1.54 | C=CC(=O)N1CCN(C2CN(c3cc(N4CCC5(C=C[C@H](C)O5)CC4)nc(C(F)(F)F)c3C#N)C2)CC1 [Compound 3-068-2, (S)-4-(3-(4-acryloylpiperazin-1-yl)azetidin-1-yl)-6-(2-methyl-1-oxa-8-azaspiro[4.5]dec-3-en-8-yl)-2-(trifluoromethyl)nicotinonitrile] |
| 0.55 | C=CC(=O)N1CCN(C2CN(c3cc(N4CCC5(C=CC(C)O5)CC4)nc(C(F)(F)F)c3C#N)C2)CC1 (stereo not drawn) [Compound 3-066, 4-(3-(4-acryloylpiperazin-1-yl)azetidin-1-yl)-6-(2-methyl-1-oxa-8-azaspiro[4.5]dec-3-en-8-yl)-2-(trifluoromethyl)nicotinonitrile] |
